Article PMC6017477, “In Vitro ADME Properties of Two Novel Antimicrobial Peptoid-Based Compounds as Potential Agents against Canine Pyoderma” (Molecules : A Journal of Synthetic Chemistry and Natural …, 2018)
Non-standard residues stand in square brackets, D forms with d. Residues, ends and D or L forms follow the SMILES beside them. N(1-naphthylmethyl)Gly = O=C(O)CNCc1cccc2ccccc12; N(4-MeBn)Gly = Cc1ccc(CNCC(=O)O)cc1; NBuGly = CCCCNCC(=O)O; Nlys = NCCCCNCC(=O)O

Assays:
[1] = tested on: pronase; conditions: 37 °C, RP-HPLC peak areas
[2] = In vitro drug release from formulations, Franz cell with cellulose membrane; assay type: physicochemical
Description: Release was evaluated as function of the amount of peptide diffused through a cellulose membrane in the receptor of a Franz cell and detected via RP-HPLC from 0 to 8 h.
An oil-in-water cream and an ointment were prepared as described by Danish Health and Medicines Authority. For the oil-in-water cream, ingredients of the oil phase (Table 3) were melted on a water bath at 70 °C and mixed with the water phase, which was previously brought to boil and cooled down to 65–70 °C. The mixture was stirred until cooled. The ointment formulation was prepared by mixing melted Vaseline (80%) with paraffin oil (20%) on a water bath and allowed to cool under stirring. The cold method was used for preparation of the 20% (w/w) poloxamer gel, where the poloxamer powder was dissolved in purified water at 4 °C and subsequently left overnight at 2–8 °C to stabilize. All formulations were stored at 4 °C for maximum seven days before use. […] For the hydrogel, the compounds dissolved in water were mixed with the cold poloxamer solution before gelling at room temperature.
Approximately 200 µL of each formulation was filled into the donor chambers of the Franz cells via a 1 mL syringe ensuring contact with the cellulose membrane separating the donor compartment from the receptor compartment. The donor compartment was maintained at room temperature (25 ± 1 °C) and the membrane diffusion area was 1.57 cm^2. […] The receptor medium (3 mL PBS, pH 7.4) was stirred using magnetic stirring and thermo-regulated to 36 °C by a water jacket. Samples (200 μL) were collected from the receptor compartment through the sampling port over 8 h, and the withdrawn volume was replaced with an equal volume of buffer at every time point. The samples were analyzed by a Waters 600E RP-HPLC equipped with Empower 3 software (Waters Corporation, Milford, MA, USA): 30 min run time with 20 min linear gradient from 0.1% (v/v) TFA in water to 30% (v/v) ACN:H2O with 0.1% (v/v) TFA (90:10). […] Experiments were performed in duplicate.

[3] = in vitro; conditions: Beagle, dog
Description: Plasma stability was determined by incubation of a known concentration of the peptoid/hybrid of interest with dog plasma up to 60 min at 37 °C and analyzing the concentration of the peptide in the supernatant by LC-MS/MS after protein precipitation. Results are presented as average of triplicates from a single donor.
Dog plasma was collected from a single Beagle dog at the research facilities of Zoetis Animal Health (Kalamazoo, MI, USA) and frozen immediately until use. […] Test compounds were added to plasma diluted 1:1 with PBS buffer pH 7.4 and preheated for 5 min at 37 °C. Samples were removed at 0, 5, 10, 20, 30, and 60 min. The reaction was stopped by protein precipitation by adding a 9:1 (v/v) ACN:MeOH mixture followed by centrifugation at 10,000 rpm for 5 min, and the remaining amount of intact test compounds in the supernatant was quantified via API Sciex 4000Q LC-MS/MS (Framingham, MA, USA) (coupled with an HPLC column to filter off the plasma proteins—see Supplementary Materials, Section S6) upon completion of the assay. Experiments were performed in quadruplicate.

[4] = Day 0 versus Day 1, UV-UPLC
Description: 5-60% ACN in 2 minutes, 0.1% Formic Acid
(Waters Acquity UV-UPLC, C18 column, 2.1x54 mm, T=60°C, equilibration time= 0.1 min)
Table S4 Final gradient elution UV-UPLC method used for the LC-MS/MS experiments. %A and %B indicate the
percentage of the mobile phases mixed at the given time. […]

[5] = UV-UPLC detection limit 1 µg/L
Description: The experiment was repeated twice.
The experiment was conducted in duplicate.

[6] = tested on: human red blood cells; assay type: cell-based; conditions: 37 °C, 1 h
Description: EC10 and EC50 values represent concentrations that result in 10 and 50% hemolysis, respectively. […] Briefly, two-fold serial dilutions (1 to 256 μg/mL) were incubated in PBS with a suspension of freshly withdrawn human red blood cells in PBS in 96-well v-shaped microtiter plates at 37 °C for 1 h covered with Microseal foil to avoid evaporation, and transferred to 96-well flat bottomed microtiter plates. The release of hemoglobin was detected by measuring the absorbance at 414 nm by a UV spectrophotometer (VERSAmax™ Tunable Microplate Reader, Molecular Devices, San José, CA, USA). PBS and melittin were used as negative and positive controls, respectively. All human blood samples were obtained after informed consent of the voluntary donors upon understanding of the research purposes, within local hospitals and according to local guidelines.

Compound: CCCCN(CC(N)=O)C(=O)CN(CCCCN)C(=O)CN(Cc1cccc2ccccc12)C(=O)CN(CCCCN)C(=O)CN(Cc1ccc(C)cc1)C(=O)CN(Cc1cccc2ccccc12)C(=O)CN(CCCCN)C(=O)CNCCCCN [Compound D2] (H-[Nlys][Nlys][N(1-naphthylmethyl)Gly][N(4-MeBn)Gly][Nlys][N(1-naphthylmethyl)Gly][Nlys][NBuGly]-NH2)
- degradation after 24 h incubation with pronase [1]: shows stability
- release from 20% poloxamer gel after eight hours ([2]; 20% poloxamer gel, 8 h): no detectable release
- release kinetics from oil-in-water cream ([2]; oil-in-water cream): zero-order kinetics
- release from ointment after eight hours ([2]; ointment, 8 h): no detectable release
- half-life ([3]; plasma, pH 7.4, Half-life in plasma (dog), dog plasma, 37 °C, incubation up to 60 min, LC-MS/MS): > 120 min

Compound: CCCCN(CC(=O)N[C@@H](CCCCN)C(=O)N(CC(=O)N(CC(=O)N(CC(N)=O)Cc1cccc2ccccc12)Cc1ccc(C)cc1)Cc1cccc2ccccc12)C(=O)[C@H](CCCCN)NC(=O)[C@@H](N)CCCCN [Compound B1] (H-KK[NBuGly]K[N(1-naphthylmethyl)Gly][N(4-MeBn)Gly][N(1-naphthylmethyl)Gly]-NH2)
- stability in 50% transcutol in acetate buffer pH 5 [4]: stable
- skin penetration from 50% transcutol formulation after 24 h [5]: No penetration
- EC50, concentration resulting in 50% hemolysis of erythrocytes [6]: 219 µg/mL
- half-life ([3]; dog plasma diluted 1:1 with PBS, pH 7.4, Half-life in plasma (dog), dog plasma, 37 °C, incubation up to 60 min, LC-MS/MS): ~30 min
- half-life ([3]; dog plasma diluted 1:1 with PBS, pH 7.4, stability to plasma proteases (half-life), in hours): 30 min
